The OPERA property sets (Mansouri et al. 2018)

Details: for log10 BCF / log10 biotransformation half-life (days): fish

| SMILES | boiling point [°C] | melting point [°C] | other results |
| --- | --- | --- | --- |
| CCOP(=O)(OCC)OCC | 216 | -56.4 | log10 Henry constant (atm·m³/mol): -7.44; log10 vapour pressure (mmHg): -0.406; ready biodegradability: not readily biodegradable; log10 BCF: 0.11; log10 biotransformation half-life (days): -1.09 |
| Nc1ccccc1C(F)(F)F | 187 | 35.5 |  |
| CCOC(=O)C(C(C)=O)C(C)C (stereo not given) | 201 |  |  |
| FCOC(C(F)(F)F)C(F)(F)F | 58.5 |  | log10 vapour pressure (mmHg): 2.29 |
| O=C(NN=Cc1ccc([N+](=O)[O-])o1)c1ccc(O)cc1 |  | 298 |  |
| CCCOc1ccc(C(=O)O)cc1 |  | 145 |  |
| FCOC(F)(F)C(F)F | 53.6 |  | log10 vapour pressure (mmHg): 2.37 |
| CON | 49.5 |  | log10 vapour pressure (mmHg): 2.46 |
| Oc1ccc(-c2ccccc2)cc1 | 305 | 166 | ready biodegradability: not readily biodegradable; log10 BCF: 1.59; log10 biotransformation half-life (days): -0.81 |
| O=C(O)COCC(=O)O |  | 148 |  |
| Oc1c(I)cc(I)c2cccnc12 |  | 210 |  |
| CCOC(=O)NC(C)(C)Cc1ccc(Cl)cc1 |  | 52.8 |  |
| CC#Cc1cc(C)nc(Nc2ccccc2)n1 |  | 133 | log10 vapour pressure (mmHg): -6.76 |
| CCCC(c1ccccc1)c1ccccc1 | 287 | 27 |  |
| C[C@@H](O)C(C)(C)O | 175 |  |  |
| Nc1cccc2ccc(O)cc12 |  | 206 |  |
| CCC(C)=NO[Si](C)(ON=C(C)CC)ON=C(C)CC |  |  | ready biodegradability: not readily biodegradable |
| O=c1oc(=O)c2ccccc2c2ccccc12 |  | 217 |  |
| COc1cc2c(c(O)c1OC)CCN(C)[C@H]2C |  | 152 |  |
| CCC1(c2ccccc2)C(=O)NCNC1=O |  | 282 |  |
| NS(=O)(=O)c1ccc(CCCO)cc1 |  | 95.5 |  |
| CCOC(=O)CSc1nc(C(C)(C)C)nn1C(=O)N(C)C |  | 53 | log10 vapour pressure (mmHg): -6.92 |

| SMILES | boiling point [°C] | melting point [°C] | other results |
| --- | --- | --- | --- |
| CC(C)S | 52.5 | -130 | log10 vapour pressure (mmHg): 2.44 |
| NN1CCCCC1 | 147 |  |  |
| O=C(OC1CCCCC1)c1ccccc1 | 285 |  |  |
| O=c1ccn([C@@H]2C[C@H](F)[C@@H](CO)O2)c(=O)[nH]1 |  | 186 |  |
| Cc1c(N)cc([N+](=O)[O-])cc1[N+](=O)[O-] |  | 174 |  |
| FC1(F)C(F)(F)C(F)(Cl)C1(F)Cl (stereo not given) | 59.5 | -24.2 | log10 vapour pressure (mmHg): 2.36 |
| COc1ccc(C(C)(C)C)cc1 | 238 |  |  |
| ClC1=C(Cl)C2(Cl)C(CBr)CC1(Cl)C2(Cl)Cl (stereo not given) |  | 77 |  |
| Clc1cccc(Br)c1 | 196 | -21.5 |  |
| CCCCCCCCCCC=O |  | -4 |  |
| NNC(=O)CCCCC(=O)NN |  |  | ready biodegradability: not readily biodegradable |
| Clc1ccc(Cl)cc1 | 174 | 52.1 | log10 Henry constant (atm·m³/mol): -2.62; log10 Koa: 4.46; log10 Koc (L/kg): 2.65; log10 vapour pressure (mmHg): 0.24; ready biodegradability: not readily biodegradable; log10 BCF: 2.62; log10 biotransformation half-life (days): 1.1 |
| Nc1ccc(Cl)cc1C(=O)c1ccccc1 |  | 99 |  |
| Clc1cc(Cl)c2nsnc2c1Cl |  | 122 |  |
| C=C(C)[C@@H]1CC[C@@H](C)C[C@@H]1O |  | 78 |  |
| CSCCSC | 183 |  |  |
| C=NCC#N |  | 129 |  |
| CCCCCC=CC=O |  |  | log10 Henry constant (atm·m³/mol): -4.13 |
| Clc1cc(Cl)c(-c2c(Cl)ccc(Cl)c2Cl)cc1Cl |  |  | log10 Koa: 9.27; log10 Koc (L/kg): 5.79; log10 vapour pressure (mmHg): -5.07 |
| O=C(O)c1cc([N+](=O)[O-])ccc1[N+](=O)[O-] |  |  | log10 Koc (L/kg): 2.3 |
| CC(=CC(C)C)CC(C)C |  |  | log10 biotransformation half-life (days): 0.92 |
| CCCOC(C)=O | 102 | -93 | log10 Henry constant (atm·m³/mol): -3.66; log10 Koa: 3.17; log10 vapour pressure (mmHg): 1.56; ready biodegradability: readily biodegradable |

| SMILES | boiling point [°C] | melting point [°C] | other results |
| --- | --- | --- | --- |
| Clc1cc2c(oc3c(Cl)c(Cl)c(Cl)c(Cl)c32)c(Cl)c1Cl |  | 233 | log10 Koa: 11.2; log10 vapour pressure (mmHg): -10.5; log10 BCF: 3.45; log10 biotransformation half-life (days): 0.9 |
| Oc1ccc(Cc2ccc(O)cc2)cc1 |  | 162 | ready biodegradability: not readily biodegradable |
| Brc1c2ccccc2c(Br)c2ccccc12 |  | 226 |  |
| Cc1ccc(Br)c(C)c1 | 205 | -17 |  |
| CC(=O)OC(C)C | 88.6 | -73.4 | log10 Henry constant (atm·m³/mol): -3.56; log10 Koa: 2.93; log10 vapour pressure (mmHg): 1.78; ready biodegradability: readily biodegradable |
| ClC=CCCl (mixture of isomers) | 109 | -50 | log10 Henry constant (atm·m³/mol): -2.62; log10 Koc (L/kg): 1.67 |
| CCS(=O)CCSP(=O)(OC)OC (stereo not given) |  |  | log10 Koc (L/kg): 1; log10 vapour pressure (mmHg): -4.55 |
| Cc1ccc2ccc(C)cc2c1 | 265 | 97 | log10 vapour pressure (mmHg): -2.25 |
| CC1=C[C@H]2O[C@@H]3[C@H](O)C[C@](C)([C@@]2(CO)[C@H](O)C1=O)[C@]31CO1 |  | 152 |  |
| O=C(Cl)C1CCCCC1 | 180 |  |  |
| C=C(CC)C(C)C | 89 |  |  |
| CCCN(CCC)C(=O)COC(=O)c1ccccc1 |  | 20 |  |
| FC(F)(F)c1nc2ccccc2[nH]1 |  | 210 |  |
| CCCN(CCC)c1ccccc1 | 242 |  |  |
| C[C@@H](O)C(=O)c1ccccc1 | 251 |  |  |
| CC(C)CCOC(=O)OCCC(C)C | 234 |  |  |
| CC(=O)c1ccc2ccccc2c1O |  | 101 |  |
| O=C1c2ccccc2C(=O)c2c1cccc2[N+](=O)[O-] |  | 232 | log10 vapour pressure (mmHg): -8.4 |
| O=C1OC(=O)[C@H]2[C@@H]1[C@H]1C=C[C@@H]2C1 |  | 164 |  |
| CN(C)CCCCCCN(C)C | 210 |  | ready biodegradability: not readily biodegradable |
